Measured values reported in the NIST ThermoML archive (doi:10.1021/je501041r).

Assay: xn = mol fraction of the nth substance listed
Settings: 101 kPa, Liquid; for viscosity: Capillary tube (Ostwald / Ubbelohde) method; for mass density: Vibrating tube method

CCCCCO [pentan-1-ol] + CC(C)CC(C)(C)C
Settings | mass density [kg/m3] | viscosity [mPa·s]
298.15 K, x2 = 0 | 810.59 | 3.458
298.15 K, x2 = 0.1004 | 794.33 | 2.615
298.15 K, x2 = 0.2003 | 778.35 | 1.984
298.15 K, x2 = 0.3 | 763.77 | 1.525
298.15 K, x2 = 0.4 | 749.96 | 1.189
298.15 K, x2 = 0.5 | 737.18 | 0.948
298.15 K, x2 = 0.5999 | 725.64 | 0.785
298.15 K, x2 = 0.6998 | 714.97 | 0.663
298.15 K, x2 = 0.7999 | 705.08 | 0.579
298.15 K, x2 = 0.8996 | 696.03 | 0.518
303.15 K, x2 = 0 | 807.89 | 3.007
303.15 K, x2 = 0.1004 | 790.55 | 2.291
303.15 K, x2 = 0.2003 | 774.49 | 1.758
303.15 K, x2 = 0.3 | 759.83 | 1.365
303.15 K, x2 = 0.4 | 745.97 | 1.076
303.15 K, x2 = 0.5 | 733.13 | 0.867
303.15 K, x2 = 0.5999 | 721.55 | 0.724
303.15 K, x2 = 0.6998 | 710.84 | 0.623
303.15 K, x2 = 0.7999 | 700.93 | 0.552
303.15 K, x2 = 0.8996 | 691.85 | 0.49
308.15 K, x2 = 0 | 804.16 | 2.625
308.15 K, x2 = 0.1004 | 786.73 | 2.038
308.15 K, x2 = 0.2003 | 770.6 | 1.562
308.15 K, x2 = 0.3 | 755.86 | 1.225
308.15 K, x2 = 0.4 | 741.94 | 0.977
308.15 K, x2 = 0.5 | 729.05 | 0.797
308.15 K, x2 = 0.5999 | 717.43 | 0.671
308.15 K, x2 = 0.6998 | 706.68 | 0.579
308.15 K, x2 = 0.7999 | 696.74 | 0.513
308.15 K, x2 = 0.8996 | 687.64 | 0.466
313.15 K, x2 = 0 | 800.4 | 2.317
313.15 K, x2 = 0.1004 | 782.88 | 1.806
313.15 K, x2 = 0.2003 | 766.66 | 1.403
313.15 K, x2 = 0.3 | 751.85 | 1.105
313.15 K, x2 = 0.4 | 737.87 | 0.89
313.15 K, x2 = 0.5 | 724.94 | 0.734
313.15 K, x2 = 0.5999 | 713.27 | 0.624
313.15 K, x2 = 0.6998 | 702.49 | 0.549
313.15 K, x2 = 0.7999 | 692.51 | 0.482
313.15 K, x2 = 0.8996 | 683.4 | 0.438
318.15 K, x2 = 0 | 796.59 | 2.029
318.15 K, x2 = 0.1004 | 778.99 | 1.618
318.15 K, x2 = 0.2003 | 762.69 | 1.255
318.15 K, x2 = 0.3 | 747.8 | 1.001
318.15 K, x2 = 0.4 | 733.76 | 0.815
318.15 K, x2 = 0.5 | 720.78 | 0.679
318.15 K, x2 = 0.5999 | 709.06 | 0.582
318.15 K, x2 = 0.6998 | 698.25 | 0.518
318.15 K, x2 = 0.7999 | 688.24 | 0.454
318.15 K, x2 = 0.8996 | 679.11 | 0.422
323.15 K, x2 = 0 | 792.75 | 1.795
323.15 K, x2 = 0.1004 | 775.05 | 1.443
323.15 K, x2 = 0.2003 | 758.67 | 1.131
323.15 K, x2 = 0.3 | 743.71 | 0.914
323.15 K, x2 = 0.4 | 729.61 | 0.749
323.15 K, x2 = 0.5 | 716.58 | 0.63
323.15 K, x2 = 0.5999 | 704.82 | 0.548
323.15 K, x2 = 0.6998 | 693.98 | 0.486
323.15 K, x2 = 0.7999 | 683.93 | 0.428
323.15 K, x2 = 0.8996 | 674.79 | 0.393

CCCCCCO [hexan-1-ol] + CC(C)CC(C)(C)C
Settings | mass density [kg/m3] | viscosity [mPa·s]
298.15 K, x2 = 0 | 815.3 | 4.605
298.15 K, x2 = 0.1001 | 799.99 | 3.428
298.15 K, x2 = 0.2 | 785 | 2.565
298.15 K, x2 = 0.3001 | 770.65 | 1.933
298.15 K, x2 = 0.4 | 756.92 | 1.452
298.15 K, x2 = 0.5 | 743.89 | 1.124
298.15 K, x2 = 0.6001 | 731.33 | 0.899
298.15 K, x2 = 0.7001 | 719.63 | 0.737
298.15 K, x2 = 0.7997 | 708.41 | 0.621
298.15 K, x2 = 0.8998 | 697.73 | 0.536
298.15 K, x2 = 0.9199 | 695.61 | –
298.15 K, x2 = 0.9396 | 693.66 | –
298.15 K, x2 = 0.9595 | 691.69 | –
303.15 K, x2 = 0 | 811.71 | 3.944
303.15 K, x2 = 0.1001 | 796.32 | 2.958
303.15 K, x2 = 0.2 | 781.24 | 2.236
303.15 K, x2 = 0.3001 | 766.82 | 1.728
303.15 K, x2 = 0.4 | 753.03 | 1.306
303.15 K, x2 = 0.5 | 739.93 | 1.051
303.15 K, x2 = 0.6001 | 727.33 | 0.829
303.15 K, x2 = 0.7001 | 715.58 | 0.688
303.15 K, x2 = 0.7997 | 704.3 | 0.582
303.15 K, x2 = 0.8998 | 693.58 | 0.504
303.15 K, x2 = 0.9199 | 691.45 | –
303.15 K, x2 = 0.9396 | 689.52 | –
303.15 K, x2 = 0.9595 | 687.54 | –
308.15 K, x2 = 0 | 808.09 | 3.414
308.15 K, x2 = 0.1001 | 792.61 | 2.592
308.15 K, x2 = 0.2 | 777.46 | 1.965
308.15 K, x2 = 0.3001 | 762.96 | 1.536
308.15 K, x2 = 0.4 | 749.11 | 1.18
308.15 K, x2 = 0.5 | 735.95 | 0.941
308.15 K, x2 = 0.6001 | 723.29 | 0.775
308.15 K, x2 = 0.7001 | 711.48 | 0.643
308.15 K, x2 = 0.7997 | 700.16 | 0.546
308.15 K, x2 = 0.8998 | 689.39 | 0.476
308.15 K, x2 = 0.9199 | 687.26 | –
308.15 K, x2 = 0.9396 | 685.32 | –
308.15 K, x2 = 0.9595 | 683.35 | –
313.15 K, x2 = 0 | 804.43 | 2.96
313.15 K, x2 = 0.1001 | 788.88 | 2.275
313.15 K, x2 = 0.2 | 773.65 | 1.745
313.15 K, x2 = 0.3001 | 759.07 | 1.361
313.15 K, x2 = 0.4 | 745.15 | 1.071
313.15 K, x2 = 0.5 | 731.93 | 0.861
313.15 K, x2 = 0.6001 | 719.21 | 0.721
313.15 K, x2 = 0.7001 | 707.36 | 0.596
313.15 K, x2 = 0.7997 | 695.98 | 0.512
313.15 K, x2 = 0.8998 | 685.18 | 0.449
313.15 K, x2 = 0.9199 | 683.03 | –
313.15 K, x2 = 0.9396 | 681.09 | –
313.15 K, x2 = 0.9595 | 679.12 | –
318.15 K, x2 = 0 | 800.75 | 2.581
318.15 K, x2 = 0.1001 | 785.1 | 1.997
318.15 K, x2 = 0.2 | 769.8 | 1.577
318.15 K, x2 = 0.3001 | 755.15 | 1.23
318.15 K, x2 = 0.4 | 741.15 | 0.976
318.15 K, x2 = 0.5 | 727.88 | 0.807
318.15 K, x2 = 0.6001 | 715.1 | 0.658
318.15 K, x2 = 0.7001 | 703.19 | 0.559
318.15 K, x2 = 0.7997 | 691.77 | 0.483
318.15 K, x2 = 0.8998 | 680.92 | 0.424
318.15 K, x2 = 0.9199 | 678.78 | –
318.15 K, x2 = 0.9396 | 676.83 | –
318.15 K, x2 = 0.9595 | 674.86 | –
323.15 K, x2 = 0 | 797.02 | 2.251
323.15 K, x2 = 0.1001 | 781.29 | 1.778
323.15 K, x2 = 0.2 | 765.91 | 1.391
323.15 K, x2 = 0.3001 | 751.18 | 1.113
323.15 K, x2 = 0.4 | 737.12 | 0.894
323.15 K, x2 = 0.5 | 723.78 | 0.747
323.15 K, x2 = 0.6001 | 710.95 | 0.623
323.15 K, x2 = 0.7001 | 698.99 | 0.523
323.15 K, x2 = 0.7997 | 687.52 | 0.455
323.15 K, x2 = 0.8998 | 676.63 | 0.402
323.15 K, x2 = 0.9199 | 674.48 | –
323.15 K, x2 = 0.9396 | 672.54 | –
323.15 K, x2 = 0.9595 | 670.56 | –
